Results: PubChem BioAssay (NCI)
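96-well plates; 48 h exposure; 5 concentrations. Endpoints by linear interpolation between flanking doses. Not reached: highest tested concentration assigned. TGI: concentration producing complete growth inhibition.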

Key:
Experiment in all cases: growth of human tumour cells (NCI), 48 h
COLO 205 colon = test system: COLO 205 colon
SK-MEL-2 melanoma = test system: SK-MEL-2 melanoma
UACC-257 melanoma = test system: UACC-257 melanoma
HL-60(TB) leukemia = test system: HL-60(TB) leukemia
DLD-1 colon = test system: DLD-1 colon
DMS 114 small cell lung = test system: DMS 114 small cell lung
DMS 273 small cell lung = test system: DMS 273 small cell lung
HOP-18 NSCLC = test system: HOP-18 NSCLC
M19-MEL melanoma = test system: M19-MEL melanoma
SNB-78 CNS = test system: SNB-78 CNS

Structure (SMILES)	TGI (COLO 205 colon) [µM]	TGI (SK-MEL-2 melanoma) [µM]	TGI (UACC-257 melanoma) [µM]	TGI (HL-60(TB) leukemia) [µM]	TGI (DLD-1 colon) [µM]	TGI (DMS 114 small cell lung) [µM]	TGI (DMS 273 small cell lung) [µM]	TGI (HOP-18 NSCLC) [µM]	TGI (M19-MEL melanoma) [µM]	TGI (SNB-78 CNS) [µM]
CN(C)C1=Nc2ccccc2C(=S)N2CSCC12 (stereo not drawn)	52	> 100	> 100							
CC1(C)OCC2OC3(c4nc(C#N)c(N)o4)OC(C)(C)OC3C2O1 (stereo not drawn)	> 100	> 100	> 100	> 100						
C=CCN1C[C@H](C)N([C@H](c2ccc(C(=O)N(CC)CCO)cc2)c2cccc(OC)c2)C[C@H]1C	> 100	> 100	> 100	> 100						
CCC1c2[nH]c3ccccc3c2C[C@H]2C(=O)NC(COC(C)(C)C)C(=O)N12 (stereo partly drawn)	37.6	85	> 100	60.9						
CCOC(=O)CC1CCN(C(=O)c2ccccc2)C2Cc3c([nH]c4ccccc34)C12C[N+](=O)[O-] (stereo not drawn)	> 100	> 100	> 100	> 100						
CCC1OC2C(CC=C(C)C)=C3OC(C)(O)C(C)(CC)C(OC(=O)c4ccccc4)C3=C3OC(=O)C=C1C32 (stereo not drawn)	39.8	55.2	> 100	> 100						
CC12CCC(C(=O)OC1=O)C2(C)C (stereo not drawn)	> 100	> 100	> 100	> 100						
CN1CCOC1(C)CO (stereo not drawn)	> 100	> 100	> 100	> 100						
COn1cc(C=O)c2ccccc21	> 100	> 100	> 100	1.52						
CC(C)CC1[C@@H](OCc2ccccc2)COS(=O)N1Cc1ccccc1 (stereo partly drawn)	> 100	> 100	> 100							
CC1=CC(C2/C(=N/O)C=C(C)CC2(C)C)C(O)C(C)(C)C1 (stereo not drawn)	36	30.6	30.1	37.2						
C=CCNC1=C2C[C@@H](C)C[C@@H](OC)[C@@H](OC(=O)CCCN)[C@H](C)/C=C(\C)[C@@H](OC(N)=O)[C@H](OC)/C=C\C=C(/C)C(=O)NC(=CC1=O)C2=O	13.6	31	31.9	19.7						
c1cc(-c2ncc(-c3ccc4c(c3)CCCO4)o2)ccn1	91.5	37.6	43.5	16						
O=C1NC(=O)C(c2c[nH]c3cc(Br)ccc23)=C1c1cn(C(c2ccccc2)(c2ccccc2)c2ccccc2)cn1	27.4	25.8	51.2	39.5						
CC(C)=CCS(=O)c1ccccc1NC1=CC(=O)CC(C)(C)C1 (stereo not drawn)	> 100	> 100	> 100	> 100						
COC(=O)C1=C(C)NC(C)=C(C(=O)OC)C1c1ccc(/[N+]([O-])=C/c2ccccc2)cc1	35.1	> 100	> 100	63.2						
CC(=O)OC1CC2c3cccc4c3C(CC2N(C)C1=O)CN4C(=O)c1ccccc1 (stereo not drawn)	56.1	64.9	49.9	44						

Structure (SMILES)	TGI (COLO 205 colon) [µM]	TGI (SK-MEL-2 melanoma) [µM]	TGI (UACC-257 melanoma) [µM]	TGI (HL-60(TB) leukemia) [µM]	TGI (DLD-1 colon) [µM]	TGI (DMS 114 small cell lung) [µM]	TGI (DMS 273 small cell lung) [µM]	TGI (HOP-18 NSCLC) [µM]	TGI (M19-MEL melanoma) [µM]	TGI (SNB-78 CNS) [µM]
COc1ccc2c3c1O[C@H]1C(O)CCC4(O)[C@@H](C2)NCC[C@]314 (stereo partly drawn)	> 100	> 100	> 100	> 100						
CNC(=S)N/N=C(C)\C(=N/NC(=S)NC)c1ccccc1	> 100		> 100							
O=C(O)c1nc(-c2ccccn2)c(-c2ccccn2)nc1C(=O)O	7.75	29.9	16.4	18.3						
Cc1cc(C)cc(C(=N)c2ccccc2Cc2cccc3ccccc23)c1	52.3	> 100	64.1	33.5						
COC1=C(Br)[C@H](O)[C@@]2(C=C1Br)CC(C(=O)NCCCCCN=C(N)N)=NO2	> 10	> 10	> 10	> 10						
CC1(C#N)CC(C)(C)C(/C=C2/CC(C)(C)C(/C=C3/OC(=N)CC3(C)C)=N2)=N1 (stereo not drawn)	34.4	> 100	48.7	78.1						
COc1ccc(C[N+]23C(CC[C@H]2c2ccccc2)CC[C@H]3c2ccccc2)cc1 (stereo partly drawn)	21.4	43	50.5	24.7						
COc1cc(/C=C2\C[C@H]3[C@@H]4CC=C5C[C@@H](O)CC[C@]5(C)[C@H]4CC[C@]3(C)C2=O)cc(OC)c1OC	54.9	65.4	> 100	2.25						
C#CCn1ncc2c(SCc3ccccc3)ncnc21	> 100	> 100	> 100							
O=C1c2cc3c(cc2CC12Cc1cc4c(cc1C2=O)CCC4)CCCC3 (stereo not drawn)		> 100	> 100	> 100						
COc1ccc2c(c1C)C(=O)C(O)(CC=C(C)C)O2 (stereo not drawn)	> 100	> 100	> 100	> 100						
CCOC(=O)CC1c2ccc(O)cc2OC(=O)C1c1ccc([N+](=O)[O-])cc1 (stereo not drawn)	33	40.1	94.5	60						
CCOC(=O)C1(C(=O)OCC)CN(CC)CN(c2ccccc2)C1	34.8		31.1	50.1						
Cc1cccc2c1[C@]13OC(C)[C@]4(C)CC5OC(=O)[C@@]1(C)[C@@H]5[C@]34C(=O)O2 (stereo partly drawn)	> 100	> 100	> 100	> 100						
CCN1c2nc3ccccc3nc2N(CC)c2nc3ccccc3nc21	> 100	> 100		> 100						
CC(=O)OCC1OC(Nc2ncc(-c3ccc(C)cc3)s2)C(OC(C)=O)C(OC(C)=O)C1OC(C)=O (stereo not drawn)	> 100	> 78.2	58.3	43.7	> 100	> 100	> 100	> 100	> 31.6	> 100
CCN(CC)/C(Cl)=C(Cl)\C(=C1\Nc2ccc(OC)cc21)[N+](=O)[O-]	> 100		> 100	> 100						
